Experiments:
[1] = target: T1, recombinant human 17β-HSD1 (Homo sapiens, UniProt P14061); assay: Inhibition of recombinant human 17β-HSD1 (conversion of 3H-estrone to estradiol, HPLC); format: biochemical; details: inhibitor 1 μM; 30 nM estrone, 1 mM NADPH, 30 min at RT; read-out: 17β-HDS1 Inhibition % at 1 μM
T1 construct: made in house; host or cells: Sd9 (Sf9) insect cells, baculovirus (Bac to Bac Expression System); microsomal fraction
T1 sequence (P14061 1-328): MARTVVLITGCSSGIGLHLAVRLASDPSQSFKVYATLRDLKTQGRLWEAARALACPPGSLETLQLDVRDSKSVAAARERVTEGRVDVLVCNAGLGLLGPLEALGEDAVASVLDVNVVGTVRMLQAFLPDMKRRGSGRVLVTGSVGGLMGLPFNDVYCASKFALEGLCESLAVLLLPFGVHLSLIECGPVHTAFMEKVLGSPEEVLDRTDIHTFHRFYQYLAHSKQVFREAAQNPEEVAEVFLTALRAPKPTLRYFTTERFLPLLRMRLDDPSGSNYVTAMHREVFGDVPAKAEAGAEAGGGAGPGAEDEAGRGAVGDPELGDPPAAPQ
Procedure, shortened: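 Microsomal recombinant human 17β-HSD1 (1 μg/ml) from insect cells incubated 30 min at RT in 20 mM KH2PO4 pH 7.4 with 30 nM 3H-estrone, 1 mM NADPH and inhibitor at 1 μM or 0.1 μM (1% DMSO). Estrone/estradiol separated by reverse-phase HPLC with radioactivity flow detection; % inhibition = 100 − % conversion.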

[2] = target: T2, recombinant human 17β-HSD2 (Homo sapiens, UniProt P37059); assay: Inhibition of recombinant human 17β-HSD2 (conversion of 3H-estradiol to estrone, HPLC); format: biochemical; details: inhibitor 1 μM; 50 nM estradiol, 1 mM NADH, 30 min at RT
T2 construct: made in house; host or cells: Sd9 (Sf9) insect cells, baculovirus (Bac to Bac Expression System); fractionated cell extract
T2 sequence (P37059 1-387): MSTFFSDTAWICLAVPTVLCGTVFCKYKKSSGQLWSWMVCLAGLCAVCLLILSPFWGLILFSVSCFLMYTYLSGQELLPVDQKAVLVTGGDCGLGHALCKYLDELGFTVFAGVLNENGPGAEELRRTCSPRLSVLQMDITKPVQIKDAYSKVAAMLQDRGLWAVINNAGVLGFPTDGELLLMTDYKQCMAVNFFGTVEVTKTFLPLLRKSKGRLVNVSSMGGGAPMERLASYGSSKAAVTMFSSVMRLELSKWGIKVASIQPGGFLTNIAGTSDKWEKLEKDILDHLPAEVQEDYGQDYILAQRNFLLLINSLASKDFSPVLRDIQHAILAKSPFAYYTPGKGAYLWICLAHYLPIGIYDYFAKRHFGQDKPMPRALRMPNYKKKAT
Procedure, shortened: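 Baculovirus/Sf9-expressed enzyme in detergent-solubilised membrane extract, 4 μg/ml, incubated 30 min at RT in 20 mM KH2PO4 pH 8.5 with 50 nM estradiol (³H-tracer) and 1 mM NADH; inhibitor at 1 μM or 0.1 μM, 1% DMSO final. TCA-stopped; estrone/estradiol separated by reverse-phase HPLC with flow scintillation; % inhibition = 100 − % conversion.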

[3] = Metabolic stability assay, human liver microsome and homogenate incubations; format: in vitro ADME; details: human liver homogenate or microsomes, LC/PDA/TOF-MS
Experimental: The in vitro metabolic stability of the compounds of the invention was determined for exemplified compounds using human liver microsome and homogenate incubations. The incubation time points used with or without appropriate cofactors were 0 min and 60 min. Samples were collected at both time points and substrates were detected using LC/PDA/TOF-MS. In vitro metabolic stability (% remaining after 60 min in human liver homogenate or microsomes) of the compounds were calculated and the results are summarized in Table 3.

CO/N=C1\C[C@@H](CCC(=O)Nc2ncc(C)s2)C2C3CCc4c(ccc(O)c4F)C3CC[C@]12C (stereo partly drawn) [Compound 92, 3-{(13S,15R)-4-Fluoro-3-hydroxy-17-[(E)-methoxyimino]-13-methyl-7,8,9,11,12,13,14,15,16,17-decahydro-6H-cyclopenta[a]phenanthren-15-yl}-N-(5-methylthiazol-2-yl)propanamide]
inhibition at 1 µM [1]: 90%
inhibition at 1 µM [2]: 7%
In vitro metabolic stability, % remaining after 60 min [3]: 68%
